Measured values published in patent publication US20020106354A1, “CELLULAR AND ANIMAL MODELS FOR DISEASES ASSOCIATED WITH ALTERED MITOCHONDRIAL FUNCTION” (priority 1998, published 2002).

Experiments:
[1] = test system: INS-1 cells; test: Insulin secretion by mtDNA-depleted INS-1 cells (insulin radioimmunoassay); format: cell-based, rat; conditions: 10 μM for 40 days
Description: INS-1 cells, or ρ^[…] cells generated using ddC as described above, were seeded into 12-well plates containing RPMI media supplemented as described at 0.5×10^6 cells/well and cultured at 37° C., 5% CO2 for 2 days. Cells (0.7×10^6 cells/well were rinsed with glucose-free KRH buffer (134 mM NaCl, 4.7 mM KCl, 1.2 mM KH2PO4, 1.2 mM MgSO4, 1.0 mM CaCl2, 10 mM HEPES, 10 mM NaHCO3, 0.5% BSA), then incubated in the same buffer for 1 hr at 37° C. in a humidified 5% Co2/95% air atmosphere. Fresh KRH buffer containing 0.5 mM isobutylmethyl xanthine and the following secretagogues was added: 5 mM glucose, 10 mM glucose, 20 mM glucose, 5 mM KCl or 20 mM KCl. After an additional 1 hr at 37° C., 5% CO2 the culture supernatants were collected. Insulin concentrations in the supernatants were measured and normalized to cell number using an insulin-specific radioimmunoassay kit (ICN Biochemicals, Irvine, CA) according to the manufacturer's instructions.

[2] = test system: INS-1 cells; test: Oxygen consumption (Clark oxygen electrode) before and after KCN; format: cell-based, rat; conditions: ddC for >50 days (Rho revertants), before and after 1 uM KCN (FIG. 4)
Description: Neurochem. 67:1897-1907, 1996) before and after the addition of 1 uM KCN. KCN inhibits mitochondrial respiration, primarily via its effect on Complex IV activity.

[3] = test system: INS-1 cells; test: Quantification of mitochondrial DNA by slot blotting (COX-I probe) in INS-1 cells treated with nucleoside analogs; format: cell-based, rat; conditions: for Relative [mtDNA] After Contact w/ Antiviral / depleted for mitochondrial DNA / effect on mtDNA content / depleted for mtDNA: seven days; for effect on mtDNA content: varying concentrations
Description: Media were replenished every two days. Cells were harvested at periodic intervals and assayed for insulin secretion and mtDNA content. INS-1 cells, or ρ^[…] cells generated using ddC as described above, were seeded into 12-well plates containing RPMI media supplemented as described above at 0.4×10^6 cells/well and cultured at 37° C., 5% CO2 for 2 days. Cells (0.7×10^6 cells/well) were rinsed with PBS and total cellular DNA was extracted using DNAzol (Molecular Research Center, Inc., Cincinnati, Ohio) according to the manufacturer's instructions. One hundred ng DNA from each cell preparation was slot-blotted onto a Zeta-Probe membrane (Bio-Rad, Hercules, Calif.) and crosslinked at 125 joules using a BioRad GS GeneLinker irradiation/energy source. The membranes were rinsed in hybridization buffer (5× SSC, 0.1% N-laurylsarcosine, 0.02% SDS, 1% blocking solution, Boehringer Mannheim, Indianapolis, Ind.) and hybridized overnight in the same buffer at 42° C. with the [^32P]-labeled rat COX I probe. Following hybridization, membranes were washed twice with 2X SSC/0.1% SDS and twice with 0.1× SSC/0.1% SDS and exposed to X-ray film. Mitochondrial DNA was quantified by densitometric scanning of the resulting autoradiographs. Time Course of Effects of ddC on Mitochondrial DNA Content of INS-1 Cells INS-1 cells were grown in RPMI medium supplemented with 10% fetal calf serum, 2 mM […], 100 U/ml penicillin, 100 μg/ml streptomycin, 10 mM HEPES, 1 mM sodium pyruvate, 50 μg/ml uridine, and 50 μM β-mercaptoethanol, in the presence of 10 μM ddC. After various times in culture, cells were harvested for analysis of mtDNA content. Total cellular DNA was extracted from approximately one million cells using DNAzol (Molecular Research Center, Inc. Cincinnati, Ohio) essentially according to the manufacturer's instructions. One hundred ng total DNA was analyzed by slot-blot on Zeta-Probe membranes (Bio-Rad, Hercules, Calif.). The membranes were hybridized with a [^32P]-labeled probe complementary to the mitochondrial gene encoding COXI. Autoradiograms were prepared, and the relative content of mitochondrial DNA (mtDNA) estimated by the relative densities of the autoradiographic bands.

[4] = test system: patients; conditions: cited from earlier work
[5] = test system: INS-1 cells; test: Lactate production in ddC-treated INS-1 cells; format: cell-based, rat
Description: Lactate production was measured in ddC-treated and control INS-1 cells at approximately day 40 and day 50 of ddC incubation. Cells were grown in 35 mm dishes. Media were replenished 16 hr before assay with normal culture media containing various amounts of glucose. The media were then collected, and lactate measured using a commercially available kit, in which lactate dehydrogenase is used to produce a fluorescent compound (Sigma, St. Louis, Mo.), essentially according to the manufacturer's instructions.

Q: Which results are given for `Nc1ccn([C@H]2CC[C@@H](CO)O2)c(=O)n1` [ddC, 2′3′-dideoxycytidine]?
A: KCl-mediated insulin secretion [1]: remained intact; glucose stimulated insulin secretion ([1]; 5, 10, 20 mM glucose (FIG. 3)): no glucose stimulated insulin secretion was observed; mitochondrial-mediated respiration (oxygen consumption) [2]: mitochondrial-mediated respiration (Complex IV activity) was present; Relative [mtDNA] After Contact w/ Antiviral ([3]; 5 μM, INS-1 cells): 0.86; Relative mtDNA content per million cells ([3]; 10 μM ddC, day 3): 0.46; Relative mtDNA content per million cells ([3]; 10 μM ddC, day 7): 0.41; Relative mtDNA content per million cells ([3]; 10 μM ddC, day 14): 0.055; Relative mtDNA content per million cells ([3]; 10 μM ddC, day 21): 0.020; Relative mtDNA content per million cells ([3]; 10 μM ddC, day 40): 0.0021; Relative mtDNA content per million cells ([3]; 10 μM ddC, day 60): 0.550; Relative mtDNA content per million cells ([3]; 10 μM ddC, day 80): 0.81; mtDNA content relative to pretreatment (day 0) ([3]; 10 μM ddC, day 80, about one million cells): about 80%; mtDNA detectability ([3]; 10 μM, 40 days): undetectable; Relative [mtDNA] After Contact w/ Antiviral ([3]; 10 μM, INS-1 cells): 0.86; mtDNA detectability ([3]; 25 μM, after 21 days, INS-1 cells): undetectable; Relative [mtDNA] After Contact w/ Antiviral ([3]; 50 μM, INS-1 cells): 0.41; depleted for mitochondrial DNA ([3]; 100 μM): 69%; Relative [mtDNA] After Contact w/ Antiviral ([3]; 100 μM, INS-1 cells): 0.31; IC50 ([3]; Rattus norvegicus, INS1, 168 h, seven days incubation, INS-1 cells (FIG. 1), read-out: IC50 for decrease of mtDNA content): ~50 µM; effect on mtDNA content ([3]; INS-1 cells (FIG. 1)): decreased mtDNA content in a dose-dependent fashion; side-effect of treatment: peripheral neuropathy [4]: axonal peripheral neuropathy; side-effect of treatment: neuropathy ([4]; particularly diabetics): toxic and painful neuropathy; lactate produced relative to control (untreated) cells ([5]; 40-day ddC-treated cells, 25 or 50 mM glucose): > 5 times; lactate produced compared with control (untreated) cells ([5]; after more than about 50 days ddC): comparable amounts of lactate

Q: For `Cc1cn([C@H]2C=C[C@@H](CO)O2)c(=O)[nH]c1=O` [d4T, 2′3′-didehydro-3-deoxythymidine], which “Relative [mtDNA] After Contact w/ Antiviral” value ([3]; 10 μM, INS-1 cells) is on record?
A: 0.98

Q: And the “Relative [mtDNA] After Contact w/ Antiviral” value ([3]; 50 μM, INS-1 cells)?
A: 0.56

Q: And the “depleted for mitochondrial DNA” value ([3]; 100 μM)?
A: 95%

Q: What about the “Relative [mtDNA] After Contact w/ Antiviral” value ([3]; 100 μM, INS-1 cells) of the same compound?
A: 0.05

Q: What about the “effect on mtDNA content” value ([3]; INS-1 cells (FIG. 1)) of the same compound?
A: decreased mtDNA content in a dose-dependent fashion

Q: And the “side-effect of treatment: peripheral neuropathy” value [4]?
A: axonal peripheral neuropathy

Q: With `O=c1[nH]c(=O)n([C@@H]2O[C@H](CO)[C@@H](O)[C@@H]2F)cc1I` [FIAU, fialuridine] as the compound, how does the “Relative [mtDNA] After Contact w/ Antiviral” value ([3]; 10 μM, INS-1 cells) read?
A: 0.66

Q: What about the “depleted for mitochondrial DNA” value ([3]; 100 μM) of the same compound?
A: 61%

Q: And the “Relative [mtDNA] After Contact w/ Antiviral” value ([3]; 100 μM, INS-1 cells)?
A: 0.39

Q: Which “depleted for mitochondrial DNA” value ([3]; 100 μM) does the source give for `O=c1[nH]cnc2c1ncn2[C@H]1CC[C@@H](CO)O1` [ddI, 2′3′-dideoxyinosine] here?
A: 80%

Q: What about the “effect on mtDNA content” value ([3]; INS-1 cells (FIG. 1)) of the same compound?
A: decreased mtDNA content in a dose-dependent fashion

Q: Which results are given for `Cc1cn([C@H]2C[C@H](N=[N+]=[N-])[C@@H](CO)O2)c(=O)[nH]c1=O` [AZT, 3′-azido-3′ deoxythymidine]?
A: depleted for mtDNA ([3]; 5 μM): no depletion of mtDNA; depleted for mtDNA ([3]; 10 μM): 4%; depleted for mtDNA ([3]; 50 μM): 15%; depleted for mitochondrial DNA ([3]; 100 μM): no depletion of mtDNA
